Results from patent US11866407B2 (priority 2021, dated 2024).
Read-outs that look alike come from different tables or passages of the source. Residues, ends and D or L forms follow the SMILES beside them. *: point of attachment. Cbz = O=C(OCc1ccccc1)*; CH2F = FC*

Experiments:
HCoV-OC43 = HCoV-OC43 plaque assay; format: cell-based; conditions: Betacoronavirus 1, OC43, RD cells
HCoV-NL63 = HCoV-NL63 CPE assay; format: cell-based; conditions: with vs without CP-100356
HCoV-229E = HCoV-229E CPE assay; format: cell-based; conditions: Human coronavirus 229E
[1] = Cytotoxicity in Calu-3 cells; format: cell-based; conditions: human
SARS-CoV-2 M^pro = SARS-CoV-2 M^pro (Severe acute respiratory syndrome coronavirus 2, UniProt P0DTD1); assay: FRET-based enzymatic assay, SARS-CoV-2 Mpro; format: biochemical
PL^pro = PL^pro (Severe acute respiratory syndrome coronavirus 2, UniProt P0DTD1); assay: PLpro protease inhibition (Table 2); format: biochemical, SARS-CoV-2
[2] = Cytotoxicity in Vero E6 cells; conditions: African green monkey
caspase-3 = biological target: T1, caspase-3 (Homo sapiens, UniProt P42574); assay: Caspase-3 enzymatic assay; format: biochemical
T1 construct: purchased BioVision 1083-25
T1 sequence (P42574 29-175 limits assumed): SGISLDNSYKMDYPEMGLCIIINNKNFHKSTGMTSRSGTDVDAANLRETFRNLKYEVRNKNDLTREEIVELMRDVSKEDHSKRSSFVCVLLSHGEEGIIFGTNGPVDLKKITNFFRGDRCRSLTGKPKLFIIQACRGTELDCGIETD
T1 sequence (P42574 176-277 limits assumed): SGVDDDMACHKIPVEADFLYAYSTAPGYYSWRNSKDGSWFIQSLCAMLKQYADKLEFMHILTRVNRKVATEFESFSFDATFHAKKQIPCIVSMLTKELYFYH
Method: Caspase-3 enzymatic assay was carried out as follows: 1 unit Caspase-3 protein was diluted into 1600 μl reaction buffer (20 mM HEPES pH7.4, 2 mM EDTA, 0.1% CHAPS and 5 mM DTT); 100 μl diluted protein was incubated with 1 μl various concentration of testing compounds for 30 min at 30° C.; the enzymatic reaction was initiated by adding 1 μl of 2 mM Ac-DEVD-AFC (Medchemexpress, Catalog #HY-P1005). The reaction was monitored a Molecular Devices SpectraMax iD3 plate reader with excitation at 400 nm and emission at 505 nm at 30° C. for 1 hour. The IC50 values were calculated as described in the previous section.

in vitro [3] = conditions: African green monkey
SARS-CoV-2 [4] = assay: SARS-CoV-2 antiviral immunofluorescence assay; format: cell-based; conditions: both cell lines (Vero E6 and Caco2-ACE2)
[5] = test system: M^pros from all seven human coronaviruses; assay: Thermal shift binding assay (DSF); conditions: indicating protein stabilization
SARS-CoV-2 [6] = assay: Antiviral activity in Calu-3 cells (Table 2); format: cell-based; conditions: Severe acute respiratory syndrome coronavirus 2, Calu-3
calpain I = biological target: T2, calpain I (Homo sapiens, UniProt P07384); assay: Calpain I enzymatic assay; format: biochemical
T2 construct: purchased Sigma-Aldrich C6108
T2 sequence (P07384 1-714): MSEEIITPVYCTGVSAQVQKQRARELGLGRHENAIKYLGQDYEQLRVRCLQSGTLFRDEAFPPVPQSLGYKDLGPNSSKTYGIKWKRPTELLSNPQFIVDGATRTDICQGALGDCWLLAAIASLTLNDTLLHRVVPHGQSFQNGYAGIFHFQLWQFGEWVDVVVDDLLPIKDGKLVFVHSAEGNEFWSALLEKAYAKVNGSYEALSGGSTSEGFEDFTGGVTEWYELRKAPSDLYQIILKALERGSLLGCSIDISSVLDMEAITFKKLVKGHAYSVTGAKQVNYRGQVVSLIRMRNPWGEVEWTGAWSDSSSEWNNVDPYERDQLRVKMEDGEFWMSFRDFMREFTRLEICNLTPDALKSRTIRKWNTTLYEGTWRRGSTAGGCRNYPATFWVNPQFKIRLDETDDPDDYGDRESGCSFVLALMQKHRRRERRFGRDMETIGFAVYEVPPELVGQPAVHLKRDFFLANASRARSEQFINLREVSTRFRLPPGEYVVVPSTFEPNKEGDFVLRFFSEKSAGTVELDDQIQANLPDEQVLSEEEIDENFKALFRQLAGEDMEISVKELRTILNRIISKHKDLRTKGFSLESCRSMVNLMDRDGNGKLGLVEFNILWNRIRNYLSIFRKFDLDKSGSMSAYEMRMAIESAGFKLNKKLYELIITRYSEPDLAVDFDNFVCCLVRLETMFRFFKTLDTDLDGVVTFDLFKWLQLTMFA
T2 sequence (P04632 1-268 partner): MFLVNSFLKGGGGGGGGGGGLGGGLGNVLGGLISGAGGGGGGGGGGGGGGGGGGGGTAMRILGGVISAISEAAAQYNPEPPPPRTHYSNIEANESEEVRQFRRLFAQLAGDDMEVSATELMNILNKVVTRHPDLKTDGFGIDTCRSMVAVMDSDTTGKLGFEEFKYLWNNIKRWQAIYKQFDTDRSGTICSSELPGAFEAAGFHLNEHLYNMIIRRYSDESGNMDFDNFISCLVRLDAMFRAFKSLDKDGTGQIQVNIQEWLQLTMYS
Method: (§1) Calpain I, Cathepsin L and Cathepsin K enzymatic assays were carried as previously described.^33

cathepsin L = biological target: T3, cathepsin L (Homo sapiens, UniProt P07711); assay: Cathepsin L enzymatic assay; format: biochemical
T3 construct: purchased EMD Millipore 219402
Method: as §1

in vitro [7] = conditions: human
in vitro [8] = conditions: human, Caco-2

T3 sequence (P07711 114-333): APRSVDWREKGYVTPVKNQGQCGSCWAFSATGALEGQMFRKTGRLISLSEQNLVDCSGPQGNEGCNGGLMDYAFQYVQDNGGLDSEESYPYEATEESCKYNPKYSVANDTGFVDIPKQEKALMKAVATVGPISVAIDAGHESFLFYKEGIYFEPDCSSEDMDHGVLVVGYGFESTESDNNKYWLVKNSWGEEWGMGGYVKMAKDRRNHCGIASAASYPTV

With `CC1(C)C2CN(C(=O)OCc3ccccc3)C(C(=O)NC(C=O)CC3CCNC3=O)C21` (stereo not shown) [UAWJ9-36-3] the EC50 (HCoV-OC43) was 59 nM, the “antiviral activity against HCoV-NL63 in Vero E6 cells in the presence of P-gp inhibitor CP-100356” value (HCoV-NL63) was “increased” and the EC50 (HCoV-229E) was 130 nM.
In the case of `CC(C)C[C@H](NC(=O)OCc1ccc(NC(=O)CCC(=O)NCCOCCOCCNc2cccc3c2C(=O)N(C2CCC(=O)NC2=O)C3=O)cc1)C(=O)N[C@@H](C[C@@H]1CCNC1=O)C(=O)C(=O)NC1CC1` (stereo partly shown), the CC50 [1] is reported as > 250000 nM, the IC50 (SARS-CoV-2 M^pro) is reported as 110 nM and the IC50 (PL^pro) is reported as > 20000 nM. The CC50 [2] was > 250000 nM.
`COC(=O)C[C@H](NC(=O)[C@H](C)NC(=O)[C@@H](NC(=O)OCc1ccccc1)C(C)C)C(=O)CF` [Z-VAD-FMK] (Cbz-Val-Ala-Asp(OMe)-CH2F) gave an IC50 (caspase-3) of 100 ± 40 nM.
With `CC(C)C[C@H](NC(=O)[C@H](Cc1ccccc1)NC(=O)OCc1ccccc1)C(=O)N[C@@H](C[C@@H]1CCNC1=O)C(=O)C(=O)NC1CC1` the IC50 (SARS-CoV-2 M^pro) was 13 nM.
In the case of `O=C(NC1CC1)C(=O)[C@H](C[C@@H]1CCNC1=O)NC(=O)C1[C@H]2CCC[C@H]2CN1C(=O)OCc1ccccc1` (stereo partly shown), the CC50 (in vitro [3]) is reported as > 250000 nM and the IC50 (SARS-CoV-2 M^pro) is reported as 130 nM.
With `CC(C)C[C@H](NC(=O)OCc1ccc(NC(=O)CCC(=O)NCCOCCOCCNc2cccc3c2C(=O)N(C2CCC(=O)N(C)C2=O)C3=O)cc1)C(=O)N[C@@H](C[C@@H]1CCNC1=O)C(=O)C(=O)NC1CC1` (stereo partly shown) the IC50 (SARS-CoV-2 M^pro) was 110 nM.
In the case of `O=C(N[C@H](C(=O)N[C@@H](C[C@@H]1CCNC1=O)C(=O)C(=O)NC1CC1)C1CCCCC1)OCc1ccccc1`, the IC50 (SARS-CoV-2 M^pro) is reported as 380 nM and the IC50 (PL^pro) is reported as > 20000 nM.
For `O=CC(CC1CCNC1=O)NC(=O)C1C2CCCC2CN1C(=O)OCc1ccccc1` (stereo not shown) [UAWJ9-36-1], the EC50 (HCoV-OC43) was 46 nM, the “antiviral potency against SARS-CoV-2 relative to GC-376” value (SARS-CoV-2 [4]) was “less potent than GC-376” and the “antiviral activity against HCoV-NL63 in Vero E6 cells in the presence of P-gp inhibitor CP-100356” value (HCoV-NL63) was “increased”. The “melting temperature shift (ΔTm)” value [5] was “significantly increased” and the EC50 (HCoV-229E) was 170 nM.
With `CC(C)C[C@H](NC(=O)[C@H](Cc1ccccc1)NC(=O)OCc1ccccc1)C(=O)N[C@@H](C[C@@H]1CCNC1=O)C(=O)C(=O)NC(C)C` the IC50 (SARS-CoV-2 M^pro) was 130 nM and the IC50 (PL^pro) was > 20000 nM.
With `CC(C)C[C@H](NC(=O)OCC1CCC(F)(F)CC1)C(=O)N[C@@H](C[C@@H]1CCNC1=O)C(=O)C(=O)NC1CC1` the CC50 (in vitro [3]) was > 250000 nM, the EC50 (SARS-CoV-2 [6]) was 2600 nM and the IC50 (SARS-CoV-2 M^pro) was 60 nM.
In the case of `C#CCCC(=O)Nc1ccc(COC(=O)N[C@@H](CC(C)C)C(=O)N[C@@H](C[C@@H]2CCNC2=O)C(=O)C(=O)NC2CC2)cc1`, the CC50 [1] is reported as > 250000 nM, the IC50 (SARS-CoV-2 M^pro) is reported as 150 nM and the IC50 (PL^pro) is reported as > 20000 nM. For the same compound, the CC50 [2] was > 250000 nM.
`CC(C)C[C@H](NC(=O)OCc1ccccc1)C(=O)N[C@@H](CC1CCNC1=O)C(O)S(=O)(=O)O` (stereo partly shown) [GC-376] showed an IC50 (calpain I) of 74 nM and an IC50 (cathepsin L) of 4.4 nM.
Compound `CC(C)C[C@H](NC(=O)OCc1ccccc1)C(=O)N[C@@H](CC(C)C)C(=O)N[C@@H](C[C@@H]1CCNC1=O)C(=O)C(=O)NC1CC1` has an IC50 (SARS-CoV-2 M^pro) of 12 nM.
`CC(C)C[C@H](NC(=O)[C@@H](NC(=O)OCc1ccccc1)C(C)C)C(=O)N[C@@H](C[C@@H]1CCNC1=O)C(=O)C(=O)NC1CC1` gave an IC50 (SARS-CoV-2 M^pro) of 14 nM.
With `CC(C)C[C@H](NC(=O)OCc1ccccc1)C(=O)N[C@@H](C[C@@H]1CCNC1=O)C(=O)C(=O)NC1CC1` the CC50 (in vitro [7]) was > 100000 nM, the CC50 (in vitro [8]) was > 100000 nM and the IC50 (SARS-CoV-2 M^pro; read-out: SARS-CoV-2 M^pro IC50, Table 2) was 45 nM.
Work on `CCOC(=O)/C=C/[C@H](C[C@@H]1CCNC1=O)NC(=O)[C@H](CC(C)C)NC(=O)OCc1ccccc1` yielded an IC50 (SARS-CoV-2 M^pro) of 1710 nM.
`CC(C)[C@H](NC(=O)OCc1ccccc1)C(=O)N[C@@H](C[C@@H]1CCNC1=O)C(=O)C(=O)NC1CC1` gave an IC50 (SARS-CoV-2 M^pro) of 1290 nM.
In the case of `O=C(N[C@@H](Cc1ccccc1)C(=O)N[C@@H](C[C@@H]1CCNC1=O)C(=O)C(=O)NC1CC1)OCc1ccccc1`, the CC50 (in vitro [7]) is reported as > 100000 nM, the CC50 (in vitro [8]) is reported as > 100000 nM and the IC50 (SARS-CoV-2 M^pro) is reported as 780 nM.
With `CC1(C)[C@@H]2C(C(=O)N[C@@H](C[C@@H]3CCNC3=O)C(=O)C(=O)NC3CC3)N(C(=O)OCc3ccccc3)C[C@@H]21` (stereo partly shown) the CC50 (in vitro [3]) was > 250000 nM and the IC50 (SARS-CoV-2 M^pro) was 200 nM.
Compound `O=C(N[C@@H](Cc1ccc(F)cc1)C(=O)N[C@@H](C[C@@H]1CCNC1=O)C(=O)C(=O)NC1CC1)OCc1ccccc1` has an IC50 (SARS-CoV-2 M^pro) of 5500 nM.
Work on `O=C(N[C@@H](Cc1ccccc1)C(=O)N[C@@H](C[C@@H]1CCNC1=O)C(O)S(=O)(=O)[O][Na+])OCc1ccccc1` (stereo partly shown) yielded an IC50 (SARS-CoV-2 M^pro) of 40 nM.
For `CC(C)C[C@H](NC(=O)[C@H](Cc1ccccc1)NC(=O)OCc1ccccc1)C(=O)N[C@@H](C[C@@H]1CCNC1=O)C(=O)C(=O)NCc1ccccc1`, the IC50 (SARS-CoV-2 M^pro) was 90 nM and the IC50 (PL^pro) was > 20000 nM.
